Consider eight compounds from ChEMBL document CHEMBL1155799 (Bioorg Med Chem, 2008).

Bounds are passed on as bounds.

Test [1] deals with T1, 5-hydroxytryptamine receptor 2C (Homo sapiens, UniProt P28335).
T1 sequence (P28335 whole entry): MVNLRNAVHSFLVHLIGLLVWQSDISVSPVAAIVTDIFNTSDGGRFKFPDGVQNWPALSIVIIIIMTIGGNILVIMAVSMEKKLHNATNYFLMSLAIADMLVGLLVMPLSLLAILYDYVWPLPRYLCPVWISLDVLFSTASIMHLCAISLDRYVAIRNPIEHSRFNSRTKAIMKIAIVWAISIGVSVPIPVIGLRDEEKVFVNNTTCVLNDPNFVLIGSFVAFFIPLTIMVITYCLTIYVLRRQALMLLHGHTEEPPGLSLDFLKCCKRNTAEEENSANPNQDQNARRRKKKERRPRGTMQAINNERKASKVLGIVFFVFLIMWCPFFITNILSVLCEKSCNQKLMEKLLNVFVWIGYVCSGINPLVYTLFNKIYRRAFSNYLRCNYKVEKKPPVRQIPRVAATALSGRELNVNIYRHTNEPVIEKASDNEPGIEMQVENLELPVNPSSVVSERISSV
Description: Binding affinity to human cloned 5HT2C receptor

Test [2] deals with 5-hydroxytryptamine receptor 2A (Homo sapiens, UniProt P28223).
Description: Binding affinity to human cloned 5HT2A receptor
For test [3], the target named is T2, 5-hydroxytryptamine receptor 1A (Homo sapiens, UniProt P08908).
T2 sequence (P08908 whole entry): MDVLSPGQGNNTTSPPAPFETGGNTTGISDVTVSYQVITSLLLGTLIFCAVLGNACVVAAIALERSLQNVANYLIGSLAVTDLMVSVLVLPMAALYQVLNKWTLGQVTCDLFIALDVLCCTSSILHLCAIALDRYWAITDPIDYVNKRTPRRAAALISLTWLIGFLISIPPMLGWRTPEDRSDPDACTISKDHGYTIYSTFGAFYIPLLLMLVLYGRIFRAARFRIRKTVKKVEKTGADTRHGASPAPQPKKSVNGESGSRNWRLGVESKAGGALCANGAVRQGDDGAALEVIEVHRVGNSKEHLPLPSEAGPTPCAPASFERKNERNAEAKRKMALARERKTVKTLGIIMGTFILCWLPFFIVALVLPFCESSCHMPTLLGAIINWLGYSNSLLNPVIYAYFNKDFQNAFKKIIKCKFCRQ
Description: Binding affinity to human cloned 5HT1A receptor

The next test deals with D(3) dopamine receptor (Homo sapiens, UniProt P35462).
The next test concerns the target T3, D(4) dopamine receptor (Homo sapiens, UniProt P21917).
T3 sequence (P21917 whole entry): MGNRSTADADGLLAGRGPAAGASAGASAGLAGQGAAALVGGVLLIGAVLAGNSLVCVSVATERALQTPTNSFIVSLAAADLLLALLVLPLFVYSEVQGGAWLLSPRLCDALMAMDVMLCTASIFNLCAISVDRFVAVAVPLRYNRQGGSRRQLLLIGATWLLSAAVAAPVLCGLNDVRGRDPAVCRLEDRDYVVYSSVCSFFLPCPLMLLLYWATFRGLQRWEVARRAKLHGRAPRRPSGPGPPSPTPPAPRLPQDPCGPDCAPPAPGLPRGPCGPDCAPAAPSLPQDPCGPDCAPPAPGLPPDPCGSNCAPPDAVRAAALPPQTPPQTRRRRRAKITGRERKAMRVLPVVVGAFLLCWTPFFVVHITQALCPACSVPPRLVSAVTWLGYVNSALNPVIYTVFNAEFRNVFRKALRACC

Test [4] addresses 5-hydroxytryptamine receptor 6 (Homo sapiens, UniProt P50406).
Description: Binding affinity to human cloned 5HT6 receptor
Test [5] deals with T4, Muscarinic acetylcholine receptor M1 (Homo sapiens, UniProt P11229).
T4 sequence (P11229 whole entry): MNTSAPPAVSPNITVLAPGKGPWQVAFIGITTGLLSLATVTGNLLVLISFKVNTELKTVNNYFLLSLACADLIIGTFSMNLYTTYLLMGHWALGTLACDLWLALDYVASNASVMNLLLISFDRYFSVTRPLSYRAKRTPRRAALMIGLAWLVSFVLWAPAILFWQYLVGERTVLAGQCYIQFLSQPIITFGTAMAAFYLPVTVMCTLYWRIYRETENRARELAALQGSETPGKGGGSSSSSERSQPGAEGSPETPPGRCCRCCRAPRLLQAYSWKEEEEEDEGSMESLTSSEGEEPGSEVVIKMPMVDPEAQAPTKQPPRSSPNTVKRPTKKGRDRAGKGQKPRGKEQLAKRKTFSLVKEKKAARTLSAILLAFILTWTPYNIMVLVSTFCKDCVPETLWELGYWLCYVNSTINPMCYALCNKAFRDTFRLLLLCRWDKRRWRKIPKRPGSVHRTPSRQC
Description: Binding affinity to human cloned muscarinic M1 receptor

Test [6] addresses 5-hydroxytryptamine receptor 2B (Homo sapiens, UniProt P41595).
Description: Binding affinity to human cloned 5HT2B receptor
The target of test [7] is Sodium-dependent dopamine transporter (Homo sapiens, UniProt Q01959).
Description: Binding affinity to human DAT
The species entered for another test is Mus musculus. The experiment in a line: animal or person. In kind it is functional. Conditions: Swiss Webster, 0.5 h.

D(3) dopamine receptor, sequence (P35462 whole entry): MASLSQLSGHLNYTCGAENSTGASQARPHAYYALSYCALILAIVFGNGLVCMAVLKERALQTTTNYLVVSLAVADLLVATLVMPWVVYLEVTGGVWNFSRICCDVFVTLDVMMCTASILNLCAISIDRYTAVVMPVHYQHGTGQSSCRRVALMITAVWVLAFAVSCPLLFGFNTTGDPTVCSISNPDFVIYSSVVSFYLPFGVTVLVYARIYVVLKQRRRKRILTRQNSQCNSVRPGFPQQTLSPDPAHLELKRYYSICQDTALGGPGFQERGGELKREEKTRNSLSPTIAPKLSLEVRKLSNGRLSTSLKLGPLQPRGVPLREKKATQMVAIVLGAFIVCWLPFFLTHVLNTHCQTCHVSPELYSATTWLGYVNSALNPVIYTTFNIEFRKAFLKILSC
5-hydroxytryptamine receptor 2A, sequence (P28223 whole entry): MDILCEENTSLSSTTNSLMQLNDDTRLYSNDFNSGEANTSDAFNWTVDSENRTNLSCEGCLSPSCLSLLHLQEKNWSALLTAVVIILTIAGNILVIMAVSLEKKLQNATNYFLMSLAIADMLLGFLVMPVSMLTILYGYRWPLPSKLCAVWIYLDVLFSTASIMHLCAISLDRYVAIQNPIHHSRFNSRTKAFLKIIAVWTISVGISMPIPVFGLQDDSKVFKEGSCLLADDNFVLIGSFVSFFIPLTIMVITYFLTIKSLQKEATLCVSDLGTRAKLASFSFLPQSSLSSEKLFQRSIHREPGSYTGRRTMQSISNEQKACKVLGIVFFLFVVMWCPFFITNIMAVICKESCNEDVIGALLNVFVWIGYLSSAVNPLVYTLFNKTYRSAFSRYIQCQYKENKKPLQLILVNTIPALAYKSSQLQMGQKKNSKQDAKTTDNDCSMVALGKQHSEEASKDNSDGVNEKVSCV
5-hydroxytryptamine receptor 6, sequence (P50406 whole entry): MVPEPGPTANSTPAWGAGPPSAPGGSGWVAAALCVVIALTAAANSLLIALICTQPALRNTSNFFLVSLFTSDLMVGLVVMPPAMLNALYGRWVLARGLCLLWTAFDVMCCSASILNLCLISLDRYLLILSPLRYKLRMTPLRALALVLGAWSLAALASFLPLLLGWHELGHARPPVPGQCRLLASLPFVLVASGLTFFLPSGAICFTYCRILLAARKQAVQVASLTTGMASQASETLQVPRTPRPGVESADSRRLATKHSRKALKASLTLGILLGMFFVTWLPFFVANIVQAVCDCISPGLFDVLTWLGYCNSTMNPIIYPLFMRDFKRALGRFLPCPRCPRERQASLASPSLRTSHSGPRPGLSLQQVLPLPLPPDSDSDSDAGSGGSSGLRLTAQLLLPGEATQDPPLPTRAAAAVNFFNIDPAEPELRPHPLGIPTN
5-hydroxytryptamine receptor 2B, sequence (P41595 whole entry): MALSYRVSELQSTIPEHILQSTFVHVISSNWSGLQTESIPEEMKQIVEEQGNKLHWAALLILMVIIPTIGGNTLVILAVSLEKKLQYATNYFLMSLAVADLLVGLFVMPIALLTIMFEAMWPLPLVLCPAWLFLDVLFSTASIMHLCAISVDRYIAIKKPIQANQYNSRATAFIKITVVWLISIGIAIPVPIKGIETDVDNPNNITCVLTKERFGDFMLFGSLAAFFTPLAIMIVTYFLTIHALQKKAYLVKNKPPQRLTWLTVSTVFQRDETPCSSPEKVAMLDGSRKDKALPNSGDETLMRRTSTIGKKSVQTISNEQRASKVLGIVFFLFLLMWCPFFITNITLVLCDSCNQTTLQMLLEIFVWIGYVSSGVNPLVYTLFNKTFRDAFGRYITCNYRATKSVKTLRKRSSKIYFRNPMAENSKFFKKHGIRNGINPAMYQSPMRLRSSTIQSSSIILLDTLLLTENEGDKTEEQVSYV
Sodium-dependent dopamine transporter, sequence (Q01959 whole entry): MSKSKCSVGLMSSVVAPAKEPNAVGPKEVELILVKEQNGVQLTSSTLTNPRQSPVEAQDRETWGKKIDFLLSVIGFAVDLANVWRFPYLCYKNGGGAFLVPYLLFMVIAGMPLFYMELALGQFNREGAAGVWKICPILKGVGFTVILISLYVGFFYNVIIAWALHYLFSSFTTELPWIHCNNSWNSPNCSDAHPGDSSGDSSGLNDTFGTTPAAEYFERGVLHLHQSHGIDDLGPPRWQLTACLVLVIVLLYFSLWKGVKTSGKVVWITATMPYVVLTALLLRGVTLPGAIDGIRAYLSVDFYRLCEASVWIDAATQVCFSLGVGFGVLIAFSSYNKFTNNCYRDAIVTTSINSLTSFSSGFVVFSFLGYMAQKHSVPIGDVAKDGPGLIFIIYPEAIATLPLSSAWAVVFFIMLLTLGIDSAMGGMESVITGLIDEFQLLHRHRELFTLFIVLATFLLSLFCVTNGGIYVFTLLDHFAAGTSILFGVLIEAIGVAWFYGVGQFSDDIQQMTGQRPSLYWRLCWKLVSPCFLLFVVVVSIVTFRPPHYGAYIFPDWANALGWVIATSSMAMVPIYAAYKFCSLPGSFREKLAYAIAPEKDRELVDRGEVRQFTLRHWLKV
Description for D(3) dopamine receptor: Binding affinity to human cloned dopamine D3 receptor
Description for D(4) dopamine receptor: Binding affinity to human cloned dopamine D4 receptor
Description for Mus musculus: Blockade of apomorphine-induced climbing stereotypy in Swiss Webster mouse after 30 mins

The term Ki denotes a measure of affinity in units of concentration, obtained from inhibition or displacement. A higher Ki goes with lower affinity. Regarding `O=C(CCCN1C2CCC1CC(c1ccccc1)C2)c1ccc(F)cc1` (stereo not given), the values for the Ki in [1], in [2] and in test [3] were 1.06 µM, 0.106 µM and 0.414 µM, respectively.
`O=C(CCCN1CC2CCC(C1)N2c1ccccc1)c1ccc(F)cc1`: the Ki came out at 0.6 µM at D(3) dopamine receptor and 2.1 µM at D(4) dopamine receptor.
In the case of `O=C(CCCN1CCC(O)(c2ccc(Cl)cc2)C1)c1ccc(F)cc1` (single isomer, unassigned; (+)), affinity in test [3] was put at a Ki of 0.772 µM.
As for `O=C1Cc2cc(CCN3CCN(c4nsc5ccccc45)CC3)c(Cl)cc2N1` [ZIPRASIDONE], the inhibitory constant (Ki) in test [4] was 0.076 µM; in test [5], 5.1 µM; in test [3] it was 0.0025 µM.
On to `O=C(CCCN1CC2CC1CN2c1ccc(Cl)cc1)c1ccc(F)cc1` (stereo not given), for which the Ki at D(3) dopamine receptor worked out at 0.22 µM; on D(4) dopamine receptor, 0.52 µM.
`O=C(CCCN1C2CCC1CC(O)(c1ccccc1)C2)c1ccc(F)cc1` (stereo not given): the inhibition constant Ki in [1] is greater than 10 µM; in test [2] it was 0.0123 µM; in [3], 0.0376 µM.
As for `O=C(CCCN1CCN(c2ccc(Cl)cc2)CC1)c1ccc(F)cc1`, the Ki in test [1] was 3.55 µM; in test [3] it was 0.0909 µM.
As a reminder, the ED50 is the dose that gives a 50% effect, or the effect in half of the subjects. The low end stands for an effect at a small dose, the high end for a need for a large dose. As for `O=C(CCCN1CCCN(c2ccc(Cl)cc2)CC1)c1ccc(F)cc1`, the Ki in [6] was determined as 0.495 µM; in test [7], 1.15 µM; in [4] it was 0.296 µM. In the test listed under Mus musculus, this compound showed an ED50 of 35.8 µmol/kg.
